Test results taken from PMC12276006, “Structural basis for sensitivity and acquired resistance of fungal cap guanine-N7 methyltransferases to the antifungal antibiotic sinefungin” (Nucleic Acids Research, 2025).
Values joined by “and” are separate entries in the source; they are usually repeats but may differ in a detail not shown here. Identical values can stand only once. Like-named read-outs stand apart in the source and are kept apart here.

How the values were obtained:
Ecm1 = conditions: methylation of GTP by Ecm1 in the presence of 5 μM SAM; cited from earlier work
ScAbd1-L59P-Y416C = molecular target: T1, ScAbd1-L59P-Y416C (Saccharomyces cerevisiae, UniProt P32783, L59P/Y416C); experiment: Inhibition of GpppA methylation by ScAbd1-L59P-Y416C; type: biochemical; conditions: ScAbd1-L59P-Y416C 250 nM, 100 μM SAM, 250 μM GpppA, 30°C, 20 min
T1 construct: aa 1–436); made in house; host or cells: Escherichia coli BL21 (DE3) CodonPlus RIL
T1 sequence (P32783 whole entry L59P/Y416C, the tested form may be a part): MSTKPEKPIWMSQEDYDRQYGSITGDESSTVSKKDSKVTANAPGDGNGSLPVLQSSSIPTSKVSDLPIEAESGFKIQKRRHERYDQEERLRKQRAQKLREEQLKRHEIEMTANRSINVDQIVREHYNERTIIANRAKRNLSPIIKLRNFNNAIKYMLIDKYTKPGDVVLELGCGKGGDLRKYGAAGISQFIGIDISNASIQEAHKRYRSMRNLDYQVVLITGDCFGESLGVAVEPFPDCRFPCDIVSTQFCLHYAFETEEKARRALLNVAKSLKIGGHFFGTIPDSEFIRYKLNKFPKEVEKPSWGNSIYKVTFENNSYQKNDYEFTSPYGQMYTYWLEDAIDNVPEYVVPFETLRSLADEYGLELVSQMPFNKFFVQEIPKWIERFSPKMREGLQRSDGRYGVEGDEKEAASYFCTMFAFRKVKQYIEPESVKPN
Description: (§1) Reactions (50 μl) were performed in triplicate by incubating 250 nM cap methyltransferases with 100 μM SAM and 250 μM GpppA or 2 mM GTP at 30°C in a buffer consisting of 200 mM NaCl, 50 mM Tris–HCl (pH 8.2), and 5 mM βME. Samples (10 μl aliquots) were withdrawn at specified time points (KlAbd1s: 0, 2, 5, 10, and 15 min, Fig. 1A; ScAbd1s: 0, 5, 10, 15, and 20 min, Fig. 4A) and quenched with 10 μl of 100 mM H2SO4 and 50 μM L-tryptophan, and then stored at −80°C pending liquid chromatography-tandem mass spectrometry (LC–MS/MS) analyses.
(§2) The quenched samples were thawed and centrifuged at 4000 × g at 4°C for 30 min to pellet denatured protein and the supernatants were transferred to a 96-well plate for analysis. Methylation was measured via HPLC with detection by MS conducted on an Agilent 1200 HPLC system coupled with a 6490 QQQ (Agilent Technologies). […] Samples were analyzed by the QQQ using multiple reaction monitoring (MRM) in negative mode, which measures peak intensities of the product ions of m^7GpppA (785: 408, 620 m/z) or m^7GTP (536.0: 159.0, 371.0 m/z) and the internal standard, L-tryptophan (203: 116, 141.9 m/z). […] ISTDs obtained from reaction samples quenched at specified time points were then used to interpolate either m^7GpppA or m^7GTP concentrations using the calibration curves and used for quantification. […]

[1] = molecular target: T2, ScAbd1-E124K-K163R-K311R-F387Y-Y416F (Saccharomyces cerevisiae, UniProt P32783, E124K/F387Y/K163R/K311R/Y416F); experiment: Inhibition of GpppA methylation by ScAbd1-E124K-K163R-K311R-F387Y-Y416F; type: biochemical; conditions: ScAbd1-E124K-K163R-K311R-F387Y-Y416F 250 nM, 100 μM SAM, 250 μM GpppA, 30°C, 20 min
T2 construct: aa 1–436); made in house; host or cells: Escherichia coli BL21 (DE3) CodonPlus RIL
T2 sequence (P32783 whole entry E124K/K163R/K311R/F387Y/Y416F, the tested form may be a part): as the sequence (P32783 whole entry L59P/Y416C, the tested form may be a part) above, with P59L, E124K, K163R, K311R, F387Y, C416F counted along it
Description: as §1, §2

[2] = molecular target: T3, KlAbd1 (K. lactis cap methyltransferase Abd1, wild-type) (Kluyveromyces lactis, UniProt Q6CKI0); experiment: Inhibition of GpppA methylation by KlAbd1 (LC-MS/MS assay); type: biochemical; conditions: for IC50: wild-type KlAbd1 250 nM, 100 μM SAM, 250 μM GpppA, 30°C, 10 min
T3 construct: aa 1–426); His10-Smt3 (N, cleaved yes); made in house; host or cells: Escherichia coli BL21 (DE3) CodonPlus RIL
T3 sequence (Q6CKI0 whole entry, the tested form may be a part): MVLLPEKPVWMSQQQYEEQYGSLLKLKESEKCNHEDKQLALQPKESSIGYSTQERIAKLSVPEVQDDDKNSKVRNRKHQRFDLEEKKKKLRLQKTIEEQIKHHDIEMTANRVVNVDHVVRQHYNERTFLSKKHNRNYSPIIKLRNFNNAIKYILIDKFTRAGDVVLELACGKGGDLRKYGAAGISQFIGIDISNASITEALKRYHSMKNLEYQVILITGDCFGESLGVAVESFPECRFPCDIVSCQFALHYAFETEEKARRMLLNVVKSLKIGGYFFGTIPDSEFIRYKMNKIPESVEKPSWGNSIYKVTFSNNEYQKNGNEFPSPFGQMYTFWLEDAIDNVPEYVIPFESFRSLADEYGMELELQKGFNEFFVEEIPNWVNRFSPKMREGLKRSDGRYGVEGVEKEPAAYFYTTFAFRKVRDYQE
Description: as §1
(§3) The quenched samples were thawed and centrifuged at 4000 × g at 4°C for 30 min to pellet denatured protein and the supernatants were transferred to a 96-well plate for analysis. Methylation was measured via HPLC with detection by MS conducted on an Agilent 1200 HPLC system coupled with a 6490 QQQ (Agilent Technologies). Assay samples were separated on an InfinityLab Poroshell 120 HILIC-Z column (2.1 mm × 100 mm, 2.7 μm particle size; Agilent Technologies) equilibrated in NH4Ac buffer [A: 10% 10 mM NH4Ac, pH 9.0, and 500 μM methylene diphosphonic acid/90% acetonitrile (ACN); B: 90% 10 mM NH4Ac, pH 9.0, and 500 μM methylene diphosphonic acid/10% ACN] with a flow rate 400 μl/min. The eluents of the column were directed to an electrospray ion source, connected to the QQQ. Samples were analyzed by the QQQ using multiple reaction monitoring (MRM) in negative mode, which measures peak intensities of the product ions of m^7GpppA (785: 408, 620 m/z) or m^7GTP (536.0: 159.0, 371.0 m/z) and the internal standard, L-tryptophan (203: 116, 141.9 m/z). The resultant peak intensities were then integrated. L-Tryptophan was used as an internal standard to perform cross-sample analysis. The m^7GpppA or m^7GTP product ion integrated intensities were normalized to the integrated ion intensity of L-tryptophan, yielding the ISTD. […] ISTDs obtained from reaction samples quenched at specified time points were then used to interpolate either m^7GpppA or m^7GTP concentrations using the calibration curves and used for quantification. […]

ScAbd1WT = molecular target: T4, ScAbd1WT (Saccharomyces cerevisiae, UniProt P32783); experiment: Inhibition of GpppA methylation by wild-type ScAbd1 (LC-MS/MS assay); type: biochemical; conditions: for IC50: ScAbd1WT 250 nM, 100 μM SAM, 250 μM GpppA, 30°C, 20 min
T4 construct: aa 1–436); made in house; host or cells: Escherichia coli BL21 (DE3) CodonPlus RIL
T4 sequence (P32783 whole entry, the tested form may be a part): as the sequence (P32783 whole entry L59P/Y416C, the tested form may be a part) above, with P59L, C416Y counted along it
Description: as §1, §3

ScAbd1-Y416A = molecular target: T5, ScAbd1-Y416A (Saccharomyces cerevisiae, UniProt P32783, Y416A); experiment: Inhibition of GpppA methylation by ScAbd1-Y416A; type: biochemical; conditions: ScAbd1-Y416A 250 nM, 100 μM SAM, 250 μM GpppA, 30°C, 20 min
T5 construct: aa 1–436); made in house; host or cells: Escherichia coli BL21 (DE3) CodonPlus RIL
T5 sequence (P32783 whole entry Y416A, the tested form may be a part): as the sequence (P32783 whole entry L59P/Y416C, the tested form may be a part) above, with P59L, C416A counted along it
Description: as §1, §2

[3] = test system: recombinant S. cerevisiae Abd1; conditions: cited from earlier work
ScAbd1-Y416N-R422H = molecular target: T6, ScAbd1-Y416N-R422H (Saccharomyces cerevisiae, UniProt P32783, R422H/Y416N); experiment: Inhibition of GpppA methylation by ScAbd1-Y416N-R422H; type: biochemical; conditions: ScAbd1-Y416N-R422H 250 nM, 100 μM SAM, 250 μM GpppA, 30°C, 20 min; read-out: SAH IC50
T6 construct: aa 1–436); made in house; host or cells: Escherichia coli BL21 (DE3) CodonPlus RIL
T6 sequence (P32783 whole entry Y416N/R422H, the tested form may be a part): as the sequence (P32783 whole entry L59P/Y416C, the tested form may be a part) above, with P59L, C416N, R422H counted along it
Description: as §1, §2

[4] = test system: ScAbd1 variants L59P-Y416C, Y416N-R422H, E124K-K163R-K311R-F387Y-Y416F and Y416A; experiment: Inhibition of GpppA methylation, the four SFG-resistant ScAbd1 variants stated together; type: biochemical, Saccharomyces cerevisiae; conditions: versus wild-type ScAbd1
Description: as §1, §2

[5] = test system: S. cerevisiae strain complemented with the mammalian capping apparatus; set-up: method as in PMID 10347220; conditions: cited from earlier work
[6] = test system: S. cerevisiae and an S. cerevisiae strain complemented with Candida albicans capping enzymes; set-up: method as in PMID 15964937, PMID 11035009; conditions: S. cerevisiae versus strain complemented with Candida albicans capping enzymes; cited from earlier work
[7] = molecular target: human cap guanine-N7 methyltransferase RNMT; conditions: cited from earlier work
[8] = test system: S. cerevisiae abd1Δ pABD1* pSAM3 strains; experiment: Spot test for growth of abd1Δ pSAM3 strains bearing ABD1 alleles on SFG-supplemented agar; type: cell-based, Saccharomyces cerevisiae; conditions: 30°C
Description: A library of PCR-mutated ABD1 alleles (ABD1*) in a CEN TRP1 plasmid under the control of the ABD1 promoter was constructed as described. The pABD1* library DNA was transfected into S. cerevisiae strain abd1Δ pABD1 (CEN URA3 ABD1) pSAM3 (2µ HIS3 SAM3). Trp^+ His^+ transformants were selected and then plated to agar medium containing 5-fluoroorotic acid (FOA) to counter-select against the CEN URA3 ABD1 plasmid. FOA survivors were plated to Trp- His- agar plates (25 ml) to which 300 µl of a 2.5 or 5 µM solution of SFG had been applied. Colonies that grew well on SFG-containing plates were candidates for harboring SFG-resistant ABD1* alleles. To ascertain whether SFG-resistance was linked to ABD1, the plasmids were recovered from individual SFG-resistant strains and amplified clonally by transformation in E. coli. The pABD1* plasmid DNAs isolated from E. coli were transfected into S. cerevisiae abd1Δ pABD1 (CEN URA3 ABD1) pSAM3 (2µ HIS3 SAM3) strain. Trp^+ His^+ transformants were selected and plated to FOA for counterselection against the CEN URA3 ABD1 plasmid. The resulting abd1Δ pABD1* (CEN TRP1 ABD1*) pSAM3 (2µ HIS3 SAM3) strains were tested in parallel with a control abd1Δ pABD1 (CEN TRP1 ABD1) pSAM3 (2µ HIS3 SAM3) strain for growth on Trp- His- agar plates (25 ml) supplemented with SFG (300 µl of 0.63, 1.25, 2.5 and 5 µM SFG per plate). […]

Nc1ncnc2c1ncn2[C@@H]1O[C@H](CSCC[C@H](N)C(=O)O)[C@@H](O)[C@H]1O [SAH, S-adenosylhomocysteine]
IC50 (Ecm1): 4 µM
IC50 (ScAbd1-L59P-Y416C; read-out: SAH IC50): 33.5 ± 2.3 µM
IC50 ([1]; read-out: SAH IC50): 35.6 ± 2.6 µM
IC50 ([2]; read-out: IC50 of SAH): 12.3 ± 4.1 µM
IC50 (ScAbd1WT; read-out: SAH IC50): 31.6 ± 6.8 µM
IC50 (ScAbd1-Y416A; read-out: SAH IC50): 16.4 ± 2.6 µM
IC50 ([3]; methylation of GpppA by recombinant S. cerevisiae Abd1, read-out: IC50 of SAH): 21 µM
IC50 (ScAbd1-Y416N-R422H): 29.7 ± 4.7 µM

Nc1ncnc2c1ncn2[C@@H]1O[C@H](C[C@@H](N)CC[C@H](N)C(=O)O)[C@@H](O)[C@H]1O [SFG, sinefungin]
IC50 (Ecm1): 1.5 µM
increase of the IC50 for SFG in the SFG-resistant mutants [4]: 20 fold
IC50 (ScAbd1-L59P-Y416C; read-out: SFG IC50): 1.35 ± 0.0699 µM
IC50 ([1]; read-out: SFG IC50): 1.47 ± 0.0677 µM
potency of growth inhibition relative to S. cerevisiae with fungal capping system [5]: five-fold less potent
potency of growth inhibition, comparison of the two strains [6]: equal potency
IC50 of SFG lower than that of SAH [7]: 130 fold
potency of SFG versus SAH (ratio of the IC50 values) ([2]; KlAbd1, GpppA substrate): 240 fold
IC50 ([2]; read-out: apparent IC50 of SFG): 0.0521 ± 0.0131 µM
IC50 (ScAbd1WT; read-out: SFG IC50): 0.065 µM and 0.0651 µM
sensitivity/affinity for SFG versus SAH (ratio of IC50 values) (ScAbd1WT; wild-type ScAbd1, GpppA substrate): 485 fold
IC50 (ScAbd1-Y416A; read-out: SFG IC50): 1.47 ± 0.077 µM
IC50 ([3]; S. cerevisiae Abd1 in vitro, GpppA, read-out: apparent IC50 of SFG): 0.024 µM
tighter binding of SFG than of SAM or SAH ([3]; ScAbd1): up to 900 fold
potency of SFG versus SAH ([3]; methylation of GpppA by recombinant S. cerevisiae Abd1): 900 fold
SFG resistance of growth ([8]; single ABD1-Y416A mutation, abd1Δ pSAM3 (2μ HIS3 SAM3) strain background, agar): sufficed to confer SFG resistance
sensitivity to growth inhibition by SFG ([8]; three ABD1* strains (L59P-Y416C, Y416N-R422H, E124K-K163R-K311R-F387Y-Y416F) versus isogenic wild-type ABD1, Trp- His- agar): less sensitive to growth inhibition by SFG than the isogenic wild-type ABD1 strain
